Laboratory results published in patent US20150290306A1, “COMPOSITIONS AND METHODS FOR DIAGNOSIS AND TREATMENT OF MALIGNANT GLIOMAS” (priority 2012, published 2015).

Test system: PBMCs
Test: PBMC culture with candidate peptides for 14 days, IFN-γ and IL-5 in supernatant by ELISA
Type: cell-based, human
Conditions: for IFN-γ/IL-5 ratio (geometric mean): peptide 10 μg/mL; for IFN-γ/IL-5 ratio, recurrent GBM patients compared to primary GBM patients: P<0.05
Source text: Measurement of antigen-specific T cell responses in the peripheral blood in humans differs depending on whether responses are high affinity interactions with foreign (viral) epitopes or lower affinity interactions involving recognition of self-antigens. […] Given that T cell responses directed against MAGE and IL-13Rα2 antigens also involve T cells with low affinity to these self-antigens, antigen-specific responses were quantified based on cytokine secretion, as recently described in a phase I study of patients with MS (Viglietta V, et al: Neurology 2008, 71(12):917-924). Cytokine production was quantified by ELISA, defining a positive T cell response for each patient as the amounts of IFN-γ or IL-5 that were >50 pg/mL and two standard deviations above the mean cytokine levels secreted after stimulation of cells from that patient with negative control MBP peptide.
Twenty-five mL of blood from patients or healthy subjects was obtained under an IRB-approved protocol. All samples of blood from patients were taken at the time of surgery. […] All tumor-bearing patients received similar doses of steroids and anti-epileptic medications at the time of tumor debulking surgery prior to obtaining peripheral blood for these studies. T cell responses in patients with meningiomas controlled for influences of steroids on antigen responsiveness and cytokine balance. Tumor tissue was independently confirmed in all cases by formal pathological analysis. PBMCs were purified from heparinized blood by density gradient centrifugation using Ficoll-Hypaque (GE Healthcare Biosciences), and cells were then washed with PBS and viable cells quantified by trypan-blue staining.
Freshly isolated PBMCs were plated at 2×10^5 cells/well in 200 μl of serum-free X-VIVO15 (X15) media (Lonza) in 96-well round-bottom cell culture plates. Candidate peptides, in addition to a negative control peptide derived from MBP were added at a concentration of 10 μg/mL and anti-CD3 mAb was added at a concentration of 1 μg/mL. Six T cell cultures were established for each condition in each subject, and 100 IU/ml of IL-2 was added on the following day. Plates were incubated at 37° C. and 5% CO2 for 14 days, with media changed as needed, and the supernatant was harvested to evaluate T cell responses (cytokines) induced by each condition using ELISA. In a limited number (n=3) of patients, cytokine production was assessed after both 7 and 14 days. […] An IFN-γ ELISPOT assay was performed as previously described (Lv H, Havari E, et al: J Clin Invest, 121(4):1561-1573).
To detect T helper cell responses directed against the candidate peptides, IFN-γ and IL-5 were measured by ELISA using commercially available kits supplied by BD bioscience. IFN-γ was used as a prototypic Th1 cytokine and IL-5 was chosen as a prototypic cytokine released by Th2 cells because unlike IL-4 there would be no potential consumption by antigen-specific T cells in the culture conditions (Kourilsky P, Truffa-Bachi P: Trends Immunol 2001, 22(9):502-509).

Sequence	positive wells among 6 primary T cell responses (IFN-γ or IL-5 ELISA) (Healthy Subject 1)	positive wells among 6 primary T cell responses (IFN-γ or IL-5 ELISA) (Healthy Subject 3)	positive wells among 6 primary T cell responses (IFN-γ or IL-5 ELISA) (Healthy Subject 4)	positive wells among 6 primary T cell responses (IFN-γ or IL-5 ELISA) (Healthy Subject 5)	positive wells among 6 primary T cell responses (IFN-γ or IL-5 ELISA) (Meningioma 5)	positive wells among 6 primary T cell responses (IFN-γ or IL-5 ELISA) (Meningioma 6)	positive wells among 6 primary T cell responses (IFN-γ or IL-5 ELISA) (Primary GBM 2)	positive wells among 6 primary T cell responses (IFN-γ or IL-5 ELISA) (Primary GBM 3)	positive wells among 6 primary T cell responses (IFN-γ or IL-5 ELISA) (Primary GBM 4)	positive wells among 6 primary T cell responses (IFN-γ or IL-5 ELISA) (Primary GBM 5)	positive wells among 6 primary T cell responses (IFN-γ or IL-5 ELISA) (Primary GBM 6)	positive wells among 6 primary T cell responses (IFN-γ or IL-5 ELISA) (Primary GBM 7)	positive wells among 6 primary T cell responses (IFN-γ or IL-5 ELISA) (Primary GBM 8)	positive wells among 6 primary T cell responses (IFN-γ or IL-5 ELISA) (Recurrent GBM 1)	positive wells among 6 primary T cell responses (IFN-γ or IL-5 ELISA) (Recurrent GBM 3)	IFN-γ/IL-5 ratio (geometric mean) (healthy subjects)	IFN-γ/IL-5 ratio (geometric mean) (patients with primary GBMs)	IFN-γ/IL-5 ratio (geometric mean) (patients with recurrent GBMs)	positive wells among 6 primary T cell responses (IFN-γ or IL-5 ELISA) (Healthy Subject 6)	positive wells among 6 primary T cell responses (IFN-γ or IL-5 ELISA) (Primary GBM 1)	also measured
KVDELAHFLLRKYRAK [MAGE-A3112-127]	+++ (+++/++++ cell=3-4 positive wells)	++ (+/++ cell=1-2 positive wells)	++ (+/++ cell=1-2 positive wells)	+ (+/++ cell=1-2 positive wells)	+++ (+++/++++ cell=3-4 positive wells)	+ (+/++ cell=1-2 positive wells)	++ (+/++ cell=1-2 positive wells)	++ (+/++ cell=1-2 positive wells)	+ (+/++ cell=1-2 positive wells)	+++++ (+++++/++++++ cell=5-6 positive wells)	++ (+/++ cell=1-2 positive wells)	+++ (+++/++++ cell=3-4 positive wells)	++++ (+++/++++ cell=3-4 positive wells)	+ (+/++ cell=1-2 positive wells)	++ (+/++ cell=1-2 positive wells)	4.9	0.2	0.04	–	–	positive wells among 6 primary T cell responses (IFN-γ or IL-5 ELISA) (Recurrent GBM 2): + (+/++ cell=1-2 positive wells); positive wells among 6 primary T cell responses (IFN-γ or IL-5 ELISA) (Recurrent GBM 4): ++ (+/++ cell=1-2 positive wells); positive wells among 6 primary T cell responses (IFN-γ or IL-5 ELISA) (Recurrent GBM 5): + (+/++ cell=1-2 positive wells)
ILILVIFVTGLLLRK [IL-13Ra2351-365]	+ (+/++ cell=1-2 positive wells)	–	+++++ (+++++/++++++ cell=5-6 positive wells)	++ (+/++ cell=1-2 positive wells)	++ (+/++ cell=1-2 positive wells)	++++++ (+++++/++++++ cell=5-6 positive wells)	++ (+/++ cell=1-2 positive wells)	++ (+/++ cell=1-2 positive wells)	+++ (+++/++++ cell=3-4 positive wells)	+ (+/++ cell=1-2 positive wells)	–	+++ (+++/++++ cell=3-4 positive wells)	+++++ (+++++/++++++ cell=5-6 positive wells)	++ (+/++ cell=1-2 positive wells)	+ (+/++ cell=1-2 positive wells)	2.0	0.3	0.05	++ (+/++ cell=1-2 positive wells)	+++ (+++/++++ cell=3-4 positive wells)	positive wells among 6 primary T cell responses (IFN-γ or IL-5 ELISA) (Meningioma 3): + (+/++ cell=1-2 positive wells); IFN-γ/IL-5 ratio, recurrent GBM patients compared to primary GBM patients: significantly lower; positive wells among 6 primary T cell responses (IFN-γ or IL-5 ELISA) (Recurrent GBM 5): ++ (+/++ cell=1-2 positive wells)
WQYFFPVIFSKASSSLQL [MAGE-A3143-160]	+++ (+++/++++ cell=3-4 positive wells)	+ (+/++ cell=1-2 positive wells)	+++++ (+++++/++++++ cell=5-6 positive wells)	++ (+/++ cell=1-2 positive wells)	–	+ (+/++ cell=1-2 positive wells)	+++ (+++/++++ cell=3-4 positive wells)	+ (+/++ cell=1-2 positive wells)	+ (+/++ cell=1-2 positive wells)	+ (+/++ cell=1-2 positive wells)	+ (+/++ cell=1-2 positive wells)	++ (+/++ cell=1-2 positive wells)	+++++ (+++++/++++++ cell=5-6 positive wells)	+ (+/++ cell=1-2 positive wells)	+ (+/++ cell=1-2 positive wells)	4.3	0.3	0.4	+ (+/++ cell=1-2 positive wells)	++++ (+++/++++ cell=3-4 positive wells)	positive wells among 6 primary T cell responses (IFN-γ or IL-5 ELISA) (Healthy Subject 2): +++ (+++/++++ cell=3-4 positive wells); positive wells among 6 primary T cell responses (IFN-γ or IL-5 ELISA) (Meningioma 4): + (+/++ cell=1-2 positive wells); positive wells among 6 primary T cell responses (IFN-γ or IL-5 ELISA) (Meningioma 7): + (+/++ cell=1-2 positive wells); IFN-γ/IL-5 ratio, recurrent GBM patients compared to primary GBM patients: significantly lower; positive wells among 6 primary T cell responses (IFN-γ or IL-5 ELISA) (Recurrent GBM 4): + (+/++ cell=1-2 positive wells)
LLRFWLPFGFILILV [IL-13Ra2341-355]	–	–	+ (+/++ cell=1-2 positive wells)	++++ (+++/++++ cell=3-4 positive wells)	++ (+/++ cell=1-2 positive wells)	+ (+/++ cell=1-2 positive wells)	++ (+/++ cell=1-2 positive wells)	+++++ (+++++/++++++ cell=5-6 positive wells)	–	++ (+/++ cell=1-2 positive wells)	++ (+/++ cell=1-2 positive wells)	+++ (+++/++++ cell=3-4 positive wells)	++++ (+++/++++ cell=3-4 positive wells)	++ (+/++ cell=1-2 positive wells)	–	1.6	0.3	0.02	+ (+/++ cell=1-2 positive wells)	+ (+/++ cell=1-2 positive wells)	positive wells among 6 primary T cell responses (IFN-γ or IL-5 ELISA) (Healthy Subject 2): + (+/++ cell=1-2 positive wells)
